Assay results reported in patent publication US9340577B2, “HLA binding motifs and peptides and their uses” (priority 1992, dated 2016).
No end group written: not given here.

Tests used:
Assay in all cases: biochemical
DRB1*0301 = DRB1*0301 (Homo sapiens, UniProt P01903+P01911, A100K/A102G/A103R/A169T/F55Y/I96L/K41T/L162R/M171V/P40S/Q125H/Q178H/Q39Y/R42S/S66N/T106N/T262R/W38E/Y61H); format: binding
DR1 (DRB1*0101) = DR1 (DRB1*0101) (Homo sapiens, UniProt P01903+P01911, A100R/D57E/F55L/F60I/F76Y/I96L/L162R/M171V/P40L/Q125E/R42F/V115G/Y59C); format: binding
DR4w4 (DRB1*0401) = DR4w4 (DRB1*0401) (Homo sapiens, UniProt P01903+P01911, A100K/A169T/F76Y/I96L/K127E/L162R/M171V/N62H/P40V/Q125Y/R42H/S133A/S149N/S66Y/V115G/V209L/W38E); format: binding
DRB1*0405 = DRB1*0405 (Homo sapiens, UniProt P01903+P01911, A100R/A169T/D86S/F76Y/I96L/K127E/L162R/M171V/N62H/P40V/Q125Y/R42H/S133A/S149N/S66Y/V115G/V209L/W38E); format: binding
DRB1*0802 = DRB1*0802 (Homo sapiens, UniProt P01903+P01911, A100R/A103L/A169T/F76Y/H45Y/I96F/K41T/L162R/M171V/P40S/Q125H/Q178H/Q39Y/Q99D/R218S/R42G/S66Y/V115G/W38E); format: binding
DRB1*1501 = DRB1*1501 (Homo sapiens, UniProt P01903+P01911); format: binding
DRB4*0101 = DRB4*0101 (Homo sapiens, UniProt P01903+P13762, G164S); format: binding
DRB1*1101 = DRB1*1101 (Homo sapiens, UniProt P01903+P01911, A100R/A169T/A87E/I96F/K41T/L162R/M171V/P40S/Q125H/Q178H/Q39Y/Q99D/R42S/S66Y/T262R/V115G/W38E); details: Binding affinity DRB1 *1101
Chain of DRB1*1101 (P01903 26-254 limits assumed, other chains not shown): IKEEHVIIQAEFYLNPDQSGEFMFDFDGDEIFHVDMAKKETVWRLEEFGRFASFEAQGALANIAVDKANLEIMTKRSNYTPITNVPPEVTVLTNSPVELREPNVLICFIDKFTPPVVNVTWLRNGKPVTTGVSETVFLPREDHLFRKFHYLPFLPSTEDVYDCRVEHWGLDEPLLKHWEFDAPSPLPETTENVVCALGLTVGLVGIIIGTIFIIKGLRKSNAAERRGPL

DRB5*0101 = DRB5*0101 (Homo sapiens, UniProt P01903+Q30154); details: Binding affinity DRB5 *0101
DRB1*1302 = DRB1*1302 (Homo sapiens, UniProt P01903+P01911, A100E/A169T/K41T/L162R/M171V/P40S/Q125H/Q178H/Q39Y/Q99D/R42S/S66N/T262R/V115G/W38E/Y61H); format: binding
Chain of DRB1*1302 (P01903 26-254 limits assumed, other chains not shown): as above

DR7 (DRB1*0701) = DR7 (DRB1*0701) (Homo sapiens, UniProt P01903+P01911, A100R/A102G/A103Q/D57E/D86V/E43K/F76Y/K127E/L162R/M171V/P40G/Q125H/Q99D/R33Q/R42Y/R54Q/S133A/S66F/T210M/V115G/Y107V/Y59L/Y89S); format: binding
DRB1*0901 = DRB1*0901 (Homo sapiens, UniProt P01903+P01911, A100R/A103E/D57H/D86V/F55Y/F60I/F76Y/I96F/K127E/L162R/M171V/P40D/Q125H/Q99R/R33Q/R42F/S133A/S66N/T210M/V115G/W38K/Y107V/Y59G/Y89S); format: binding
DRB1*1201 = DRB1*1201 (Homo sapiens, UniProt P01903+P01911, A100R/A169T/D57E/D86V/F55L/H45Y/K41T/L162R/M171V/P40S/Q125H/Q178H/Q39Y/Q99D/R42G/S66L/T262R/V114A/V67L/W38E/Y59H/Y61H/Y89S); format: binding

Chain of DRB1*0301 (P01903 26-254 limits assumed, other chains not shown): as above

Molecule	IC50 (DRB1*0301) [µM]	IC50 (DR1 (DRB1*0101)) [µM]	IC50 (DR4w4 (DRB1*0401)) [µM]	IC50 (DRB1*0405) [µM]	IC50 (DRB1*0802) [µM]	IC50 (DRB1*1501) [µM]	IC50 (DRB4*0101) [µM]	IC50 (DRB1*1101) [µM]	IC50 (DRB5*0101) [µM]	IC50 (DRB1*1302) [µM]	IC50 (DR7 (DRB1*0701)) [µM]	IC50 (DRB1*0901) [µM]	IC50 (DRB1*1201) [µM]
CC[C@H](C)[C@H](NC(=O)[C@@H](NC(=O)[C@@H]1CCCN1C(=O)[C@H](Cc1ccccc1)NC(=O)[C@H](Cc1ccccc1)NC(=O)[C@H](Cc1ccc(O)cc1)NC(=O)[C@H](CCC(N)=O)NC(=O)[C@H](Cc1c[nH]c2ccccc12)NC(=O)[C@H](CC(N)=O)NC(=O)CNC(=O)[C@@H](N)C(C)C)C(C)C)C(=O)N[C@@H](Cc1ccccc1)C(=O)N[C@@H](CO)C(=O)N[C@@H](CCCCN)C(=O)N[C@@H](C)C(=O)O [Peptide 58.0114]	0.0041												
CC(C)C[C@H](NC(=O)[C@H](CCC(=O)O)NC(=O)[C@H](CCCCN)NC(=O)[C@H](C)N)C(=O)N[C@@H](CCCCN)C(=O)N[C@@H](Cc1ccccc1)C(=O)N[C@H](C(=O)N[C@H](C(=O)N[C@@H](CC(C)C)C(=O)N[C@H](C(=O)N[C@@H](Cc1ccccc1)C(=O)N[C@@H](CCCNC(=N)N)C(=O)N[C@@H](Cc1c[nH]cn1)C(=O)NCC(=O)N[C@@H](CC(=O)O)C(=O)O)C(C)C)[C@@H](C)O)C(C)C [Peptide 68.0025]	> 20												
AFQVIELQMALETLS [Peptide 89.0181]	0.033	3.11	0.062	0.252	8.16	> 20	0.349	2.14	1.69				
AYGISFMELVRPFKS [Peptide 89.0060]	7.09	0.64	1.72	4.26	0.158		0.031	0.051	3.03	4.49			
CTLVAGEVDYVGLYY [Peptide 90.0252]		> 20	0.776	9.02	> 20	> 20	0.02	6.72	> 20	0.714	> 20	0.981	3.63
DLRVVQQLLMGALTV [Peptide 85.0092]	> 20					0.057		0.754					
EVQIALESLSTTIYN [Peptide 90.0231]	0.708		1.28	4.27	> 20		0.039	> 20	> 20	0.0043	0.032	0.406	
FIHFLQGAIISFVNS [Peptide 89.0088]	4.39	0.051	2.91		> 20		1.68	5.6	> 20	1.59		0.867	
GGDWKQIVMFLRYQG [Peptide 89.0013]	6.32	2.04	0.793				0.0079	0.198	0.014	0.899	2.46		
GLYYWCDGEKIYFVK [Peptide 90.0226]	0.432	0.698			> 20	1.3	> 20	9.14	> 20		4.93	> 20	
GQVIVCPASVSSNEV [Peptide 90.0016]	7.74	0.024	0.064			0.461	0.197	4.82	8.64	0.094	0.056	0.197	
HIEFTPTRTDTYACRV [Peptide 530.12]	30										> 12.5		
HWKLIRMECAIMYTA [Peptide 90.0021]	0.082	0.028		0.084	14.1	3.84	0.161		3.07	0.054	2.64		
KWGVLILALLRYKCG [Peptide 89.0027]	> 20		0.584			3.74		0.49		0.571	> 20	0.81	
LIRMECAIMYTARQM [Peptide 90.0022]			0.433	0.815	3.06	1.48	0.158	0.738	6.47	0.241	0.473	4.12	0.201
LVEVTLGEVPAAESPD [Peptide F160.17]	4.02		0.976										
NGVLQGITSWGSEPC [Peptide 68.0081]	> 20												
RLNLDNDEDKENNGD [Peptide 90.0144]		0.031	1.78	1.68	4.01	0.581	0.025	1.6		1.39	0.865	19.7	4.41
TAIFGVNPTIAEGFK [Peptide 89.0024]	0.374			0.017	11.1	11.5	0.592	4.04	17.9		0.18	4.48	
TPEWIERQTVLQHSF [Peptide 89.0048]	0.034	0.643	0.451			6.06	0.019		> 20	5.48	> 20	> 20	
TPEWIQRQTVLQHSF [Peptide 89.0010]			0.08	0.017	2	> 20	0.033	0.738	4.12	2.1	0.321	2.87	> 20
TTIYNNEEWTLRDTC [Peptide 90.0232]		10.6	> 20	> 20	> 20	10.2	> 20	3.43	> 20	1.01	> 20	> 20	> 20
TVEVQFDGDICNTMH [Peptide 90.0167]		2.3	0.818	> 20	> 20	5.08	0.235	> 20	> 20	0.039	0.25	0.583	> 20
VMAIFGVNPTVAEGF [Peptide 89.0080]	0.699	0.19	0.077	0.017	> 20		0.08	5.6	19.4	0.033	0.336	12.9	
VMFLRYQGVEFMSFL [Peptide 89.0014]	18.7	0.605	0.927	0.629	13.4	0.03	0.013		0.701		2.54	4.02	
VSKLMSQLLNIPETH [Peptide 89.0101]	0.922	> 20	10.6		> 20	> 20	> 20	> 20	> 20	9.53	> 20	> 20	
